The values that follow are results of earlier work, collected in patent US6399115B2, “Method and composition for the treatment of benign prostate hypertrophy (BPH) and prevention of prostate cancer” (priority 1999, dated 2002).

Structures are written as SMILES.

In one data set the test system is plasma testosterone. To be noted: in vivo.
Another data set relates to 5 alpha-reductase. To be noted: human prostatic tissue.
The conditions of data set [1]: among the major carotenoids.

On to `[Cu]` [Copper], for which the “levels of plasma testosterone” value in the data set on plasma testosterone is given as “reduce”.
As to `[Zn]` [Zinc], the “relationship with 5 alpha-reductase activity” value with 5 alpha-reductase is “inverse relationship”.
Consider `CC(C)=CCC/C(C)=C/C=C/C(C)=C/C=C/C(C)=C/C=C/C=C(C)/C=C/C=C(C)/C=C/C=C(\C)CCC=C(C)C` [lycopene], for which the “quenching free oxygen radicals” value in data set [1] was “most effective and significant”.
